Measured values: patent US7074789B2, “Kinase inhibitors” (Amgen Inc., priority 1999, dated 2006)
pIC50: −log10 of the molar value. Where two headings read alike, the source gives them in different places.

Tests used:
Assay type in all cases: biochemical
Lck = target: T1, Lck (Homo sapiens, UniProt P06239); test: Kinase inhibition assay (33P transfer), Lck; conditions: read-out: Lck-1
T1 construct: Kinases are expressed as either kinase domains or full length constructs; made in house
Method in brief: (§1)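 33P-ATP transfer to coated synthetic polymer substrates; acid wash (0.5% H3PO4), scintillant, liquid scintillation count. Enzymes: His- or GST-fusion kinases from E. coli or High Five insect cells.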

Zap-70 = target: T2, Zap-70 (Homo sapiens, UniProt P43403); test: Kinase inhibition assay (33P transfer), Zap-70; conditions: read-out: Zap-1
T2 construct: Kinases are expressed as either kinase domains or full length constructs; made in house
T2 sequence (P43403 1-619): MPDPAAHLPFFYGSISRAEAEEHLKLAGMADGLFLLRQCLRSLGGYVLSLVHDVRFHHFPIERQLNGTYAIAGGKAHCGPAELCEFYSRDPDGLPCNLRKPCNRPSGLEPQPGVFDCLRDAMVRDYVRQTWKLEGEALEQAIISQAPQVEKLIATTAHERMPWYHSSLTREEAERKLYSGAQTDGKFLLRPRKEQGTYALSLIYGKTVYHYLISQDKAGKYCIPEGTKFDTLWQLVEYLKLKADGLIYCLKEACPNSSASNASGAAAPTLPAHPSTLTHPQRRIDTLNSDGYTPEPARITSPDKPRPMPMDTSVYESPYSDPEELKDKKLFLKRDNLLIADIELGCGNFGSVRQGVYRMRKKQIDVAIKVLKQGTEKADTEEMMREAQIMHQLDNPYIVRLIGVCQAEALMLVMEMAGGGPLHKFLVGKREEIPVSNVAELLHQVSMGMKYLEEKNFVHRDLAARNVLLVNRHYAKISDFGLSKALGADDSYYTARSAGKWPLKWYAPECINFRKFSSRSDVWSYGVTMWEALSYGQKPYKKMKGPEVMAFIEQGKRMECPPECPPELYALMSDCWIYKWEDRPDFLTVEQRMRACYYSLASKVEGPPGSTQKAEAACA
Method in brief: as §1

Itk = target: T3, Itk (Homo sapiens, UniProt Q08881); test: Kinase inhibition assay (33P transfer), Itk; conditions: read-out: Itk-1
T3 construct: Kinases are expressed as either kinase domains or full length constructs; made in house
T3 sequence (Q08881 1-620): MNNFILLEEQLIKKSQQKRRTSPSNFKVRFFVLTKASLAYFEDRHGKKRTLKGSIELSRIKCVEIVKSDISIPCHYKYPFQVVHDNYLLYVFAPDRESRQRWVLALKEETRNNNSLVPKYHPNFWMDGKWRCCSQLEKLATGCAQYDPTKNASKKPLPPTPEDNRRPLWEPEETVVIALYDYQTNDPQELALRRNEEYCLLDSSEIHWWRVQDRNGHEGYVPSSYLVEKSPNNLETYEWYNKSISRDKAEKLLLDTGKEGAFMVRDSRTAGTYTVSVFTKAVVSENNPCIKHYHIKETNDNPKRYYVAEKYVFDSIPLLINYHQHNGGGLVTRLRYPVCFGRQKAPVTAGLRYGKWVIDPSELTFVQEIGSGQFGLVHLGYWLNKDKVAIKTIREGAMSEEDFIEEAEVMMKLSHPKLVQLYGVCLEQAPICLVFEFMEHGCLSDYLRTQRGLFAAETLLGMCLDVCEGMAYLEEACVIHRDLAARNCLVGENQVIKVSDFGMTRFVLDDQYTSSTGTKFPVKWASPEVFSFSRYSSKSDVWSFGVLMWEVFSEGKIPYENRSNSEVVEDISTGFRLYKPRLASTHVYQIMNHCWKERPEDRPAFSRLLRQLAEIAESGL
Method in brief: (§2)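 Activity read as 33P incorporation from ATP into poly(Glu,Tyr) 4:1 or poly(Arg,Ser) 3:1 substrate bound to microtiter plates, measured by scintillation after acid washing. Enzymes were affinity-purified GST or polyHis fusions (kinase domain or full length) from E. coli or baculovirus; IC50 = 50% reduction in labelled phosphate.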

EGFR = target: T4, EGFR (Homo sapiens, UniProt P00533); test: Kinase inhibition assay (33P transfer), EGFR; conditions: read-out: EGFR-1
T4 construct: Kinases are expressed as either kinase domains or full length constructs; made in house
Method in brief: as §2

Kdr = target: T5, Kdr (Homo sapiens, UniProt P35968); test: Kinase inhibition assay (33P transfer), Kdr; conditions: read-out: KDR-1
T5 construct: Kinases are expressed as either kinase domains or full length constructs; made in house
T5 sequence (P35968 20-1356, species assumed): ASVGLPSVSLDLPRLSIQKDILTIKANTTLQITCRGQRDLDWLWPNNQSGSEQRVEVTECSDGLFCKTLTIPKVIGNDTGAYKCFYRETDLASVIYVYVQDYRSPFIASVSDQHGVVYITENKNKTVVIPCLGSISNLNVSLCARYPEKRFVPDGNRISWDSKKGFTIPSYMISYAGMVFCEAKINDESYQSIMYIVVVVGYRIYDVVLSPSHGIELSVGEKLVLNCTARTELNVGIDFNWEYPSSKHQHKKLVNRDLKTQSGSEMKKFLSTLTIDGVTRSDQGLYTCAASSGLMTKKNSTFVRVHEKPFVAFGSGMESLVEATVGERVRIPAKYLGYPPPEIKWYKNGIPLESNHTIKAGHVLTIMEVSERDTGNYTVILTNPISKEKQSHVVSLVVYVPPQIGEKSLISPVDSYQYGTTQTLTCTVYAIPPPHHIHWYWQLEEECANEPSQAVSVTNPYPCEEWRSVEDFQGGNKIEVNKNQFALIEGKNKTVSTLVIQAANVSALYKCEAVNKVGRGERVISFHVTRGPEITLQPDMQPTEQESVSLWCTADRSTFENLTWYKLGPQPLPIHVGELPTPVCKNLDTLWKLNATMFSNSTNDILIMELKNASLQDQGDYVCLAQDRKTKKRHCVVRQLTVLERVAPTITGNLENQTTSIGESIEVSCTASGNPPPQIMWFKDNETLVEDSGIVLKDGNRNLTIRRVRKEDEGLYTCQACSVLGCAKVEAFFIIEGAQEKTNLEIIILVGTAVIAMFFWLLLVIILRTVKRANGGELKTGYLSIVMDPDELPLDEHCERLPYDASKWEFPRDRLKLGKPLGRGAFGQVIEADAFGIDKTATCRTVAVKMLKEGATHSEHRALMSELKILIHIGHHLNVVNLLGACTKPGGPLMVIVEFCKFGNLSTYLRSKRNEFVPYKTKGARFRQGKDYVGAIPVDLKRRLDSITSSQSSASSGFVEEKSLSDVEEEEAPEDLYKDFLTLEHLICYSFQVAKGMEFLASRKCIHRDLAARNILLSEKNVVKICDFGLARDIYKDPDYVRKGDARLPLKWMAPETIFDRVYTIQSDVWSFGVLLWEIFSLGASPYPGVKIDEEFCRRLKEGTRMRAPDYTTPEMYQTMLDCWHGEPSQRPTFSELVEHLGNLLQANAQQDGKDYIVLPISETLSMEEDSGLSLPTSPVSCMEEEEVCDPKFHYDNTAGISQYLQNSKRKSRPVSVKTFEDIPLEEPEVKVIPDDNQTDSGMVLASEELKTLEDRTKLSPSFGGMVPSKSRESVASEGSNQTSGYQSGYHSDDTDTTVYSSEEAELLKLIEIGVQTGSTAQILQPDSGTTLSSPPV
Method in brief: as §1

Tek = target: T6, Tek (Homo sapiens, UniProt Q02763); test: Kinase inhibition assay (33P transfer), Tek; conditions: read-out: Tek-1
T6 construct: Kinases are expressed as either kinase domains or full length constructs; made in house
T6 sequence (Q02763 23-1124, species assumed): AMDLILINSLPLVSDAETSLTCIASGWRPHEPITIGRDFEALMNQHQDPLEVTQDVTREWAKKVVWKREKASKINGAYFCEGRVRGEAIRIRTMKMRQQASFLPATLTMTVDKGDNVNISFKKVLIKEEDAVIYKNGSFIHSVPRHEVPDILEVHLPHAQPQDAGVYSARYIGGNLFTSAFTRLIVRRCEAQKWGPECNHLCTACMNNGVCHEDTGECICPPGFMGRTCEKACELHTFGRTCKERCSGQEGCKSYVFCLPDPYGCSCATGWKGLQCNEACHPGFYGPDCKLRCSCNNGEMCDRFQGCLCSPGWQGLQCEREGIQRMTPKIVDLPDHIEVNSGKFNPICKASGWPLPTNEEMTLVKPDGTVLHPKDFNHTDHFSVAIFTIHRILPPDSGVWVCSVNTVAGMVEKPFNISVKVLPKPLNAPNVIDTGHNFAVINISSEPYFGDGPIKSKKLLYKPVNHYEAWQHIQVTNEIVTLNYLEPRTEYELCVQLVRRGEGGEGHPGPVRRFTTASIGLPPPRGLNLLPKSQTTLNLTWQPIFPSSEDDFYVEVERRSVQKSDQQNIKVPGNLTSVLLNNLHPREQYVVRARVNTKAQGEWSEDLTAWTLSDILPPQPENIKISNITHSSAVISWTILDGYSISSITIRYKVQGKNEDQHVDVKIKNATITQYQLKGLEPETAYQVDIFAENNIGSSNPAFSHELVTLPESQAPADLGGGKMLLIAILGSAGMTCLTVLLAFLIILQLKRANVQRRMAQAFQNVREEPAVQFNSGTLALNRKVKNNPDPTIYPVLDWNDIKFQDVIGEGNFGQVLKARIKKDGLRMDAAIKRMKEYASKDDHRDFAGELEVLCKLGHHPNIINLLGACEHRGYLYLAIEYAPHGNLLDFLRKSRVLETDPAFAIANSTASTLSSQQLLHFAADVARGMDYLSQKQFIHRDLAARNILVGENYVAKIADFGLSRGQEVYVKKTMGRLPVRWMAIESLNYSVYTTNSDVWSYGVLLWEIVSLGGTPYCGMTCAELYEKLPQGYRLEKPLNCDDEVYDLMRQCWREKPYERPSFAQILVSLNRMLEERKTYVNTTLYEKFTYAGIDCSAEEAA
Method in brief: as §2

c-Met = target: T7, c-Met (Homo sapiens, UniProt P08581); test: Kinase inhibition assay (33P transfer), c-Met; conditions: read-out: Met-1
T7 construct: Kinases are expressed as either kinase domains or full length constructs; made in house
T7 sequence (P08581 25-1390): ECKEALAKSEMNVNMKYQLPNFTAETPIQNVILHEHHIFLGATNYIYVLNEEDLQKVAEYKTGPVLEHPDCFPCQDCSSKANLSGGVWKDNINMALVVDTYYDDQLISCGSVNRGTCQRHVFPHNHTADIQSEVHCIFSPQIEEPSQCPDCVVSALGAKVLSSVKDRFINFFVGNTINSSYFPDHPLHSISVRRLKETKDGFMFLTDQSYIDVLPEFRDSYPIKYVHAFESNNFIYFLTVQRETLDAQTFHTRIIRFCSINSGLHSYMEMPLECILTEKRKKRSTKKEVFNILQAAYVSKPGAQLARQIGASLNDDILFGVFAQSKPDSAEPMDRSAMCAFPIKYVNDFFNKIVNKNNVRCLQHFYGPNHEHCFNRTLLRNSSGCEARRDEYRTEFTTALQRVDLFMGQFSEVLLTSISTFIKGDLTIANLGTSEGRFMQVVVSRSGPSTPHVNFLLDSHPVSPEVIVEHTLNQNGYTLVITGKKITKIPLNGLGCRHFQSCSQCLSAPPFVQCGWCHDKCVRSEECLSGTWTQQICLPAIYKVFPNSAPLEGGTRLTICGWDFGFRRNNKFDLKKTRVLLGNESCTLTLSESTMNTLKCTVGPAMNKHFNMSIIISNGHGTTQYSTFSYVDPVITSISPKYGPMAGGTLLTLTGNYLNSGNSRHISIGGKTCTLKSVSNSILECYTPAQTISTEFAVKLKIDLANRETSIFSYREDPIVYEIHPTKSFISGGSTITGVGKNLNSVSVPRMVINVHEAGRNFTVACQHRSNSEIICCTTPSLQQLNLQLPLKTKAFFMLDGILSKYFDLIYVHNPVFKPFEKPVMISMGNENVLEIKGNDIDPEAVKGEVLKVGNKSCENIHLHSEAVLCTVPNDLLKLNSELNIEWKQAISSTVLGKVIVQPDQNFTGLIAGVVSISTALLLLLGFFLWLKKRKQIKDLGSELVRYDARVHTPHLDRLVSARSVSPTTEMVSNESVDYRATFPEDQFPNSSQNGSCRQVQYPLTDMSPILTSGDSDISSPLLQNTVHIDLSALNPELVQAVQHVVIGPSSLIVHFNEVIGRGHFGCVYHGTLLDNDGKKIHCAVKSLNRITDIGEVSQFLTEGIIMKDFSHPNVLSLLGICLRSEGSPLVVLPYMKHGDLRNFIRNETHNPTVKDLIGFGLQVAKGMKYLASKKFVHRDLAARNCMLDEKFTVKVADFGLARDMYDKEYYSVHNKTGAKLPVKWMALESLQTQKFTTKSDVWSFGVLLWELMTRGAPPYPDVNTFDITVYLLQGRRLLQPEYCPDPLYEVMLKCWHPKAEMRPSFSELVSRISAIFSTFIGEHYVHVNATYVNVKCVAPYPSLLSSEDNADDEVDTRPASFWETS
Method in brief: as §2

AKT = target: T8, AKT (Homo sapiens, UniProt Q9Y243); test: Kinase inhibition assay (33P transfer), AKT; conditions: read-out: AKT3-1
T8 construct: Kinases are expressed as either kinase domains or full length constructs; made in house
T8 sequence (Q9Y243 whole entry, the tested form may be a part): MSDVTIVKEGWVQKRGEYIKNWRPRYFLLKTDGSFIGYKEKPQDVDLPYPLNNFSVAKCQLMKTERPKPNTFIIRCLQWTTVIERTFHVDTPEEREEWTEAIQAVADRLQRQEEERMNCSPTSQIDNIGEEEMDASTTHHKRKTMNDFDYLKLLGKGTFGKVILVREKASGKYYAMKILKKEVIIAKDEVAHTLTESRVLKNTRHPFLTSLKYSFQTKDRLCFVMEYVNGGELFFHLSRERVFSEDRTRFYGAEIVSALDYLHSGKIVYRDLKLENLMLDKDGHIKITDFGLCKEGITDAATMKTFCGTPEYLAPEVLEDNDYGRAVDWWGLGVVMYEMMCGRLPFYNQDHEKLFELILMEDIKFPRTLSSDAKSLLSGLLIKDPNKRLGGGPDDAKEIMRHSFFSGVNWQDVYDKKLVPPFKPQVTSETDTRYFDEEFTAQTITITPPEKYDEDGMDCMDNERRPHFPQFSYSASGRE
Method in brief: as §1

IGFR-1 [1] = target: T9, IGFR-1 (Homo sapiens, UniProt P08069); test: Kinase inhibition assay (33P transfer), IGFR-1; conditions: Table 2, kinase inhibition class
T9 construct: Kinases are expressed as either kinase domains or full length constructs; made in house

EPHB4 = target: T10, EPHB4 (Homo sapiens, UniProt P54760); test: Kinase inhibition assay (33P transfer), EPHB4; conditions: read-out: EPHB4-1
T10 construct: Kinases are expressed as either kinase domains or full length constructs; made in house
T10 sequence (P54760 16-987): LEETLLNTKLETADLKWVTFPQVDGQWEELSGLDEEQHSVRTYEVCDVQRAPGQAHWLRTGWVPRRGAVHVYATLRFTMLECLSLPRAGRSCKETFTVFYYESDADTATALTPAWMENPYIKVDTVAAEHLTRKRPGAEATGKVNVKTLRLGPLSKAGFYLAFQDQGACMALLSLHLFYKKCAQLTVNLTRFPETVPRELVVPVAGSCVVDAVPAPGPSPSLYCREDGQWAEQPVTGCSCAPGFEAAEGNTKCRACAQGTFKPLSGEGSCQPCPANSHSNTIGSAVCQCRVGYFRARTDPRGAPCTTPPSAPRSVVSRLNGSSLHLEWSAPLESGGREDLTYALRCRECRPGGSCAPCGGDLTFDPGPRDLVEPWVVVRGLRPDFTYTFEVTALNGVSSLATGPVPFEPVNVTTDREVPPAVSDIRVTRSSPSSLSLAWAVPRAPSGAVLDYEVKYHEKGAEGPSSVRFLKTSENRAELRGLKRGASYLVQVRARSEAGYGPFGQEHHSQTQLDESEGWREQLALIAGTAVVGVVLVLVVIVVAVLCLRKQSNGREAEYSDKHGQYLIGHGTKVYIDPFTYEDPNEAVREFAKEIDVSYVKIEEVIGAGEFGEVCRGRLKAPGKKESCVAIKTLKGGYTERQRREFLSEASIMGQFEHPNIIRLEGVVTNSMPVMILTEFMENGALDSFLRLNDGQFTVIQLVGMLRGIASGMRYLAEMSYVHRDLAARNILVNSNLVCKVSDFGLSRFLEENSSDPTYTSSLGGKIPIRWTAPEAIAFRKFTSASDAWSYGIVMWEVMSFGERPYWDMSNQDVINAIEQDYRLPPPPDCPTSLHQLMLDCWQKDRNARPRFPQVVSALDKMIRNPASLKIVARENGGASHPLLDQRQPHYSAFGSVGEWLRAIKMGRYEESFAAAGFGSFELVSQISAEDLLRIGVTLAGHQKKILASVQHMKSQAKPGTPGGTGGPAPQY

ErbB4 = target: T11, ErbB4 (Homo sapiens, UniProt Q15303); test: Kinase inhibition assay (33P transfer), ErbB4; conditions: read-out: ErbB4-1
T11 construct: Kinases are expressed as either kinase domains or full length constructs; made in house

IGFR-1 [2] = target: T9, IGFR-1; test: Kinase inhibition assay (33P transfer), IGFR-1; conditions: Table 2, class symbols A-E
[3] = Table 2, kinase inhibition class

T1 sequence (P06239 whole entry, species assumed, the tested form may be a part): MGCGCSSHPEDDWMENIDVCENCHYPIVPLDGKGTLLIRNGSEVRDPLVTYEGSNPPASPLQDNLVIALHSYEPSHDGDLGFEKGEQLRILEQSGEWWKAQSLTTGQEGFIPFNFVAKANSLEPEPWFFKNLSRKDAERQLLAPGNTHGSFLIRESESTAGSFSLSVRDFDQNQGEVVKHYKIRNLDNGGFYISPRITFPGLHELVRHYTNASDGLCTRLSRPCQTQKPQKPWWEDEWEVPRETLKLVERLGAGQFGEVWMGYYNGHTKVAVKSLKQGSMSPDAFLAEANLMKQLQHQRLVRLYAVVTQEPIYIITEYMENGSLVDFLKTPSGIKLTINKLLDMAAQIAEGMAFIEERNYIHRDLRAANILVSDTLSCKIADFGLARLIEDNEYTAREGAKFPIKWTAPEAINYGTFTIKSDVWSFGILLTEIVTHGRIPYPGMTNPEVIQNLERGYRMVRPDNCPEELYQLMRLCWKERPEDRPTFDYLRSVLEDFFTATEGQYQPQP

SMILES	pIC50 (Lck; Table 3)	pIC50 (Zap-70; Table 3)	pIC50 (Itk; Table 3)	pIC50 (EGFR; [3])	pIC50 (Kdr; Table 3)	pIC50 (Tek)	pIC50 (c-Met; [3])	pIC50 (AKT; [3])	pIC50 (IGFR-1 [1])	pIC50 (EPHB4)	pIC50 (ErbB4)	pIC50 (Lck; Table 3, class symbols)	pIC50 (Zap-70; Table 3, class symbols)	pIC50 (Itk; Table 3, class symbols)	pIC50 (EGFR; Table 2, class symbols A-E)	pIC50 (Kdr; Table 3, class symbols)	pIC50 (c-Met; Table 2, class symbols A-E)	pIC50 (AKT; Table 2, class symbols A-E)	pIC50 (IGFR-1 [2])
COc1ccc(Nc2ncnc(Nc3ccccc3C)n2)cc1OC [Compound 111]	5.15 to 5.93	< 4.87	< 4.87	> 5.93	5.15 to 5.93	< 4.87	< 4.87	< 4.87	> 5.93	< 4.87	< 4.87	–	–	–	–	–	–	–	–
COc1ccc(Nc2ncnc(Nc3cccc(Br)c3)n2)cc1OC [Compound 118]	4.95 to 5.06	< 4.95	5.22 to 6.00	> 6.00	< 4.95	< 4.95	< 4.95	< 4.95	5.22 to 6.00	5.22 to 6.00	< 4.95	–	–	–	–	–	–	–	–
COc1ccc(Nc2ncnc(Nc3ccc(OCc4ccccc4)cc3)n2)cc1OC [Compound 157]	< 4.98	5.09 to 5.25	< 4.98	5.25 to 6.03	5.25 to 6.03	5.09 to 5.25	4.98 to 5.09	4.98 to 5.09	< 4.98	5.25 to 6.03	< 4.98	–	–	–	–	–	–	–	–
Oc1cccc(Nc2ncnc(Nc3ccc(OCc4ccccc4)cc3)n2)c1 [Compound 159]	< 4.93	5.04 to 5.21	< 4.93	> 5.98	5.04 to 5.21	5.04 to 5.21	5.21 to 5.98	5.21 to 5.98	4.93 to 5.04	5.04 to 5.21	< 4.93	–	–	–	–	–	–	–	–
COc1ccc(Nc2ncnc(Nc3ccc(OCc4ccccc4)cc3)n2)cc1O [Compound 171]	< 4.97	< 4.97	< 4.97	> 6.02	< 4.97	< 4.97	< 4.97	5.24 to 6.02	< 4.97	5.07 to 5.24	< 4.97	–	–	–	–	–	–	–	–
COc1cc(Nc2ncnc(Nc3cccc(OC(F)(F)F)c3)n2)cc(OC)c1OC [Compound 250]	5.26 to 6.04	< 4.99	< 4.99	> 6.04	5.10 to 5.26	< 4.99	< 4.99	< 4.99	> 6.04	< 4.99	5.26 to 6.04	–	–	–	–	–	–	–	–
Cc1ccc2c(c1)CCCN2c1ncnc(NCc2ccc(C(=O)O)cc2)n1 [Compound 853]	–	–	–	–	–	–	–	–	–	–	–	< 4.92	< 4.92	< 4.92	< 4.92	< 4.92	< 4.92	< 4.92	< 4.92
Cc1ccc2c(c1)CCCN2c1ncnc(Nc2c(C)ccc3ccccc23)n1 [Compound 854]	–	–	–	–	–	–	–	–	–	–	–	< 4.93	< 4.93	< 4.93	5.20 to 5.98	< 4.93	< 4.93	< 4.93	< 4.93
COc1ccc2[nH]cc(CCNc3ncnc(Nc4ccc(OC)c(OC)c4)n3)c2c1 [Compound 855]	–	–	–	–	–	–	–	–	–	–	–	< 4.97	< 4.97	< 4.97	< 4.97	< 4.97	< 4.97	< 4.97	< 4.97
COc1cc(Nc2ncnc(Nc3cc(C)ccc3C)n2)cc(OC)c1OC [Compound 932]	5.20 to 5.98	< 4.93	< 4.93	5.20 to 5.98	> 5.98	5.04 to 5.20	5.04 to 5.20	< 4.93	5.20 to 5.98	< 4.93	5.20 to 5.98	–	–	–	–	–	–	–	–
